Usually IC50 stands for the concentration at which inhibition is half-maximal.

We go through 4 molecules from patent US5340802A, “Peptide analog type-B CCK receptor ligands” (Abbott Laboratories, priority 1993, dated 1994).

Molecules are shown by their SMILES.

One experiment concerns the target T1, Type-B CCK receptors (Cavia porcellus, UniProt H0VZC5).
T1 construct: Cortical and pancreatic membranes were prepared as described; from tissue; host or cells: guinea pig cerebral cortex membranes
T1 sequence (H0VZC5 1-426): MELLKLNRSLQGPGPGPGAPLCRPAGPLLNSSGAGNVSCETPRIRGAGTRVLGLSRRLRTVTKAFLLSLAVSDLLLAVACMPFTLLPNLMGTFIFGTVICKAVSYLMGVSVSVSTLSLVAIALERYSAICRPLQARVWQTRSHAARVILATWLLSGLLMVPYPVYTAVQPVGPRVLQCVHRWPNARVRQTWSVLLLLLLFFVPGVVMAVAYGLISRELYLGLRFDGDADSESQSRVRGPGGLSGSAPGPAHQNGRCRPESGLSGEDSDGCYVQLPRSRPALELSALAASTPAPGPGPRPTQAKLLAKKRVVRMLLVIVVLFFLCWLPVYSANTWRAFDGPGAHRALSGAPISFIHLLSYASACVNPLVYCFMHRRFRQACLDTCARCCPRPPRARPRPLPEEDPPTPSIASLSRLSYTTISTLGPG
In words: Radioligand binding ([125I]BH-CCK-8) in guinea pig cerebral cortical membrane preparations. The note with it: cortical membranes, 30° C., 150 minutes, read-out: IC50 (nM) cortex (Type B). As for the experimental part: CCK-8 (Asp-Tyr(SO3 H)-Met-Gly-Trp-Met-Asp-Phe-NH2), bestatin and phosphoramidon were purchased from Peptide International (Louisville, Ky.). EGTA, HEPES, BSA were purchased from Sigma Chemical Co. (St. Louis, Mo.). […] Male guinea pigs, 250 to 325 g, were obtained from Scientific Small Animal Laboratory and Farm (Arlington Heights, Ill.). Collagenase, code CLSPA, was purchased from Worthington (Frehold, N.J.).
Cortical and pancreatic membranes were prepared as described (Lin and Miller; J. Pharmacol. Exp. Ther., 1985, 232:775-780). In brief, pancreas and cortex were removed and rinsed with ice-cold saline. Visible fat and connective tissues were removed from the pancreas. Tissues were weighed and homogenized in approximately 25 mL of ice-cold 50 mM Tris-HCl buffer, pH 7.4 at 4° C. with a Brinkman Polytron for 30 seconds, setting 7. The homogenates were centrifuged for 10 minutes at 1075×g and the pellet was discarded. The supernantants were saved and centrifuged at 38,730×g for 20 minutes. The resultant pellets were rehomogenized in 25 mL of 50 mM Tris-HCl buffer with a Teflon-glass homogenizer, 5 up and down strokes. The homogenates were centrifuged again at 38,730×g for 20 minutes. The pellets were then resuspended in 20 mM HEPES, containing 1 mM EGTA, 118 mM NaCl, 4.7 mM KCl, 5 mM MgCl2, 100 μ M bestatin, 3 μM phosphoramidon, pH 7.4 at 22° C. with a Teflon-glass homogenizer, 15 up and down strokes. The resuspension volume used for the cortex was 15 mL per g of original wet weight and 60 mL per g for pancreas.
To 1 mL Skatron polystyrene tubes were added 25 uL of test compounds, 25 uL of [^125 I]BH-CCK8 and 200 uL of membrane suspension. The final BSA concentration was 0.1%. The cortical tissues (source of Type-B CCK receptors) were incubated at 30° C. for 150 minutes and pancreatic tissues (source of Type-A CCK receptors) were incubated at 37° C. for 150 minutes. Incubations were terminated by filtration using a Skatron Cell Harvester and SS32 microfiber filter mats. […] IC50 values were determined from the Hill analysis.

The target in the next experiment is T2, Type-A CCK receptors (Cavia porcellus, UniProt Q63931).
T2 construct: Cortical and pancreatic membranes were prepared as described; from tissue; host or cells: guinea pig pancreas membranes
T2 sequence (Q63931 1-430): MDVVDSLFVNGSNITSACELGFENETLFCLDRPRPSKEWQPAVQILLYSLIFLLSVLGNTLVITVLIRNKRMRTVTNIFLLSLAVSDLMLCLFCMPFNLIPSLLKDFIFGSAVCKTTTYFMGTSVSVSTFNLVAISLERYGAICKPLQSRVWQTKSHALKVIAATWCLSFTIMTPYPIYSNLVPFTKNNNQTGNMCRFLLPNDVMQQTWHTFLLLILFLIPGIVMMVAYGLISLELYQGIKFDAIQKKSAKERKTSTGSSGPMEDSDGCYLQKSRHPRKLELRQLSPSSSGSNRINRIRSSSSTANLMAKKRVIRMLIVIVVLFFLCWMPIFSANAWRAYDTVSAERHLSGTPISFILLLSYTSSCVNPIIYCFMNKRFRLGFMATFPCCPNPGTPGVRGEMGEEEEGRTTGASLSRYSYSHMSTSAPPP
In words: Radioligand binding ([125I]BH-CCK-8) in guinea pig pancreatic membrane preparations. The note with it: pancreatic membranes, 37° C., 150 minutes, read-out: IC50 (nM) Pancreas (Type A).

`CC(C)C[C@H](NC(=O)[C@@H]1Cc2c[nH]c3cccc(c23)CC(=O)N1)C(=O)N[C@@H](CC(=O)O)C(=O)N/C(=C\c1ccccc1)C(N)=O` [Example 14, Ctp-Leu-Asp-(dehydro)Phe-NH2]: the IC50 is 16 nM on Type-B CCK receptors and more than 10000 nM at Type-A CCK receptors.

As to `CCC[C@@H]1CCN(C(=O)[C@@H]2Cc3c[nH]c4cccc(c34)CC(=O)N2)[C@@H]1C(=O)N[C@@H](CC(=O)O)C(=O)N[C@@H](Cc1ccccc1)C(N)=O` [Example 35, Ctp-Cpp-Asp-Phe-NH2], the values for the IC50 on Type-B CCK receptors and on Type-A CCK receptors were 18 nM and 4770 nM, respectively.

`NC(=O)[C@H](Cc1ccccc1)NC(=O)[C@H](CC(=O)O)NC(=O)[C@@H]1CSCCN1C(=O)[C@@H]1Cc2c[nH]c3cccc(c23)CC(=O)N1` [Example 42, Ctp-(1,4-thiazane-3-carbonyl)-Asp-Phe-NH2]: the IC50 on Type-B CCK receptors worked out at 8.4 nM; at Type-A CCK receptors it was 1300 nM.

For `NC(=O)[C@H](Cc1ccccc1)NC(=O)[C@H](CC(=O)O)NC(=O)[C@@H]1CCCCN1C(=O)[C@@H]1Cc2c[nH]c3cccc(c23)CC(=O)N1` [Example 43, Ctp-Pip-Asp-Phe-NH2], the IC50 on Type-B CCK receptors came out at 29.9 nM; at Type-A CCK receptors, 11500 nM.
